ChEMBL document CHEMBL1145879, “Phosphonooxymethyl prodrugs of the broad spectrum antifungal azole, ravuconazole: synthesis and biological properties” (Bioorg Med Chem Lett, 2003)
Converted amounts (≈) assume the structure as drawn. Blank lines part the entries; values can stand above or below the compound they belong to.

Tests used:
Type in all cases: physicochemical
[1] = Aqueous solubility at pH 7
[2] = Aqueous solubility at pH 6.6
[3] = Aqueous solubility was determined; conditions: buffer

solubility [1]: > 30 µg/mL
Compound: C[C@@H](c1nc(-c2ccc(C#N)cc2)cs1)[C@@](Cn1cncn1)(OCOP(=O)(O)O)c1ccc(F)cc1F [FOSRAVUCONAZOLE]

solubility [2]: > 30 µg/mL
Compound: C[C@@H](c1nc(-c2ccc(C#N)cc2)cs1)[C@](O)(Cn1c[n+](COP(=O)([O-])O)cn1)c1ccc(F)cc1F

solubility [3]: 0.6 µg/mL (≈ 1.37 µM)
Compound: C[C@@H](c1nc(-c2ccc(C#N)cc2)cs1)[C@](O)(Cn1cncn1)c1ccc(F)cc1F [RAVUCONAZOLE]
